Assay results reported in patent US12285012B2, “Compositions comprising pyridine carboxylate herbicides with acetolactate synthase (ALS) inhibitor herbicides” (Corteva Agriscience LLC, priority 2018, dated 2025).
“And” between values parts separate entries of the source, which are not always exact repeats. Equal entries are not always repeated.

Experiments:
[1] = tested on: chickweed (STEME, Stellaria media); experiment: Greenhouse postemergence herbicidal effect; format: in vivo
Procedure, shortened: (§1)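 Plants at the second or third true leaf stage, grown at about 23/22 °C day/night with a 14 h photoperiod, were sprayed postemergence. Emulsifiable concentrates held cloquintocet-mexyl safener at 120 g ai/L; rates are g ae/ha (pyridine carboxylate) or g ai/ha (ALS inhibitor). Injury was scored visually against solvent-blank controls at 20-22 d (0-100%).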

[2] = tested on: corn poppy (PAPRH, Papaver rhoeas); experiment: Greenhouse postemergence herbicidal effect; format: in vivo
Procedure, shortened: as §1

[3] = tested on: false chamomile (MATIN, Matricaria inodora); experiment: Greenhouse postemergence herbicidal effect; format: in vivo
Procedure, shortened: as §1

[4] = tested on: field chamomile (ANTAR, Anthemis arvensis); experiment: Greenhouse postemergence herbicidal effect; format: in vivo
Procedure, shortened: as §1

[5] = tested on: ivyleaf speedwell (VERHE, Veronica hederifolia); experiment: Greenhouse postemergence herbicidal effect; format: in vivo
Procedure, shortened: as §1

[6] = tested on: shepherd's purse (CAPBP, Capsella bursa-pastoris); experiment: Greenhouse postemergence herbicidal effect; format: in vivo
Procedure, shortened: as §1

[7] = tested on: wild mustard (SINAR, Sinapis arvensis); experiment: Greenhouse postemergence herbicidal effect; format: in vivo
Procedure, shortened: as §1

[8] = tested on: wild pansy (VIOTR, Viola tricolor); experiment: Greenhouse postemergence herbicidal effect; format: in vivo
Procedure, shortened: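 Injury was rated visually after 20-22 d on a 0 (none) to 100% (complete kill) scale relative to solvent-sprayed controls, with sub-irrigation to avoid wash-off. Rates were given in g ae/ha or g ai/ha depending on component.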

[9] = tested on: winter rape (BRSNW, Brassica napus); experiment: Greenhouse postemergence herbicidal effect; format: in vivo
Procedure, shortened: as §1

winter wheat (TRZAW) = experiment: Greenhouse postemergence crop phytotoxicity; format: in vivo, Triticum aestivum
From the text: (§2) Seeds of the desired test plant species were planted in a 90:10% v/v (volume/volume) mixture of PRO-MIX® BX (Premier Tech Horticulture, Quakertown, PA, USA) and PROFILE® GREENS GRADE™ (Profile Products LLC, Buffalo Grove, IL, USA) planting mixture, which typically has a pH of 5.2 to 6.2 and an organic matter content of at least 50 percent, in plastic pots with a surface area of 103.2 square centimeters (cm^2). In some aspects, to ensure good germination and healthy plants, a fungicide treatment and/or other chemical or physical treatment was applied. The plants were grown for 7-36 days (d) in a greenhouse with an approximate 14-hour (h) photo-period which was maintained at about 23° C. during the day and 22° C. during the night. Nutrients and water were added on a regular basis and supplemental lighting was provided with overhead metal halide 1000-Watt lamps as necessary. The plants were employed for testing when they reached the second or third true leaf stage.
(§3) Emulsifiable concentrates of each of each pyridine carboxylate herbicide (Compound A or Compound B) were prepared at 100 grams acid equivalent per liter (g ae/L). The emulsifiable concentrates also included a safener, cloquintocet-mexyl, at 120 grams active ingredient per liter (g ai/L), unless otherwise noted below. An aliquot of each emulsifiable concentrate was placed in a 25 mL glass vial and diluted with an aqueous mixture of 1.25% (v/v) ACTIROB® B esterified rapeseed oil (Bayer Crop Science, Research Triangle Park, NC, USA) or MSO® Concentrate with LECI-TECH® methylated soybean oil (Loveland Products, Loveland, CO, USA) to obtain concentrated stock solutions at the highest application rate for each herbicide, based upon a 12 milliliter (mL) application volume at a rate of 187 liters per hectare (L/ha). The concentrated stock solutions were further diluted with an aqueous mixture of 1.25% v/v ACTIROB® B or MSO® Concentrate with LECI-TECH® to obtain stock solutions at reduced application rates for each herbicide. Spray solutions of the herbicide combinations (Compound A or Compound B plus ALS herbicide) were prepared by adding weighed amounts or aliquots of the ALS herbicides to the stock solutions of Compound A or Compound B to form 12-mL spray solutions in two- or three-way combinations. […]
(§4) The treated plants and control plants were placed in a greenhouse as described above and watered by sub-irrigation to prevent wash-off of the test compounds. After 20-22 d, the condition of the test plants as compared with that of the control plants was determined visually and scored on a scale of 0 to 100 percent where 0 corresponds to no injury and 100 corresponds to complete kill.

winter barley (HORVW) = experiment: Greenhouse postemergence crop phytotoxicity; format: in vivo, Hordeum vulgare
From the text: as §2, §3, §4

[10] = tested on: broad-leaf dock (RUMOB, Rumex obtusifolius); experiment: Greenhouse postemergence herbicidal effect; format: in vivo; conditions: Compound A 10 g/ha; safener mefenpyr-diethyl
From the text: as §2
(§5) Emulsifiable concentrates of each of each pyridine carboxylate herbicide (Compound A or Compound B) were prepared at 100 grams acid equivalent per liter (g ae/L). The emulsifiable concentrates also included a safener, cloquintocet-mexyl, at 120 grams active ingredient per liter (g ai/L), unless otherwise noted below. An aliquot of each emulsifiable concentrate was placed in a 25 mL glass vial and diluted with an aqueous mixture of 1.25% (v/v) ACTIROB® B esterified rapeseed oil (Bayer Crop Science, Research Triangle Park, NC, USA) or MSO® Concentrate with LECI-TECH® methylated soybean oil (Loveland Products, Loveland, CO, USA) to obtain concentrated stock solutions at the highest application rate for each herbicide, based upon a 12 milliliter (mL) application volume at a rate of 187 liters per hectare (L/ha). The concentrated stock solutions were further diluted with an aqueous mixture of 1.25% v/v ACTIROB® B or MSO® Concentrate with LECI-TECH® to obtain stock solutions at reduced application rates for each herbicide. Spray solutions of the herbicide combinations (Compound A or Compound B plus ALS herbicide) were prepared by adding weighed amounts or aliquots of the ALS herbicides to the stock solutions of Compound A or Compound B to form 12-mL spray solutions in two- or three-way combinations.
(§6) The spray solutions were applied to the plant material with an overhead Mandel track sprayer equipped with 8002E nozzles calibrated to deliver 187 L/ha over an application area of 0.503 square meters (m^2) at a spray height of 18 inches (43 centimeters (cm)) above the average plant canopy. Control plants were sprayed in the same manner with the solvent blank. All pyridine carboxylate herbicide (component a) application rates are given as “g ae/ha” and all ALS inhibitor (component b) application rates are given as “g ai/ha.”
as §4

[11] = tested on: common sunflower (HELAN, Helianthus annuus); experiment: Greenhouse postemergence herbicidal effect; format: in vivo; conditions: Compound A 10 g/ha
From the text: as §2, §5, §6, §4

[12] = tested on: ivyleaf morningglory (IPOHE, Ipomoea hederacea); experiment: Greenhouse postemergence herbicidal effect; format: in vivo; conditions: Compound A 10 g/ha
From the text: as §2, §5, §6, §4

[13] = tested on: large crabgrass (DIGSA, Digitaria sanguinalis); experiment: Greenhouse postemergence herbicidal effect; format: in vivo
From the text: as §2, §5, §6, §4

[14] = tested on: soybean (GLXMA, Glycine max); experiment: Greenhouse postemergence herbicidal effect; format: in vivo; conditions: Compound A 10 g/ha; safener mefenpyr-diethyl
From the text: as §2, §5, §6, §4

[15] = tested on: velvetleaf (ABUTH, Abutilon theophrasti); experiment: Greenhouse postemergence herbicidal effect; format: in vivo
From the text: as §2, §5, §6, §4

[16] = Compound A 10 g/ha, safener mefenpyr-diethyl

N#CCOC(=O)c1nc(-c2ccc3cc[nH]c3c2F)c(F)c(N)c1Cl [Compound A, cyanomethyl 4-amino-3-chloro-5-fluoro-6-(7-fluoro-1H-indol-6-yl)pyridine-2-carboxylate]
% visual injury ([1]; Compound A 10 g/ha): 100%
% visual injury, Obs [1, 16]: 83%
STEME % visual injury Obs [1, 16]: 83%
% visual injury ([1]; Compound A 15 g/ha): 100%
% visual injury ([2]; Compound A 10 g/ha): 100%
% visual injury ([2]; Compound A 15 g/ha): 100%
% visual injury ([3]; Compound A 10 g/ha): 100%
% visual injury ([3]; Compound A 15 g/ha): 100%
% visual injury ([4]; Compound A 10 g/ha): 90%
% visual injury ([4]; Compound A 15 g/ha): 95%
% visual injury ([5]; Compound A 10 g/ha): 80%
% visual injury ([5]; Compound A 15 g/ha): 80%
% visual injury ([6]; Compound A 10 g/ha): 70%
% visual injury ([6]; Compound A 15 g/ha): 80%
% visual injury, Obs ([7]; 10 g/ha): 90% and 92% and 88%
% visual injury ([7]; Compound A 10 g/ha): 95% and 90% and 88% and 93%
% visual injury Obs ([7]; Compound A 10 g/ha): 93% and 92% and 88%
% visual injury, Obs ([7]; Compound A 10 g/ha): 100%
SINAR % visual injury Obs ([7]; Compound A 10 g/ha (Examples 62-63)): 100%
% visual injury ([7]; Compound A 15 g/ha): 97% and 93%
% visual injury Obs ([7]; Compound A 15 g/ha): 93%
% visual injury, Obs ([7]; SINAR, Compound A 10 g/ha): 93%
Obs % visual injury ([7]; SINAR, Compound A 10 g/ha): 93% and 88% and 100%
Obs % visual injury ([7]; SINAR, Compound A 10 g/ha (Table 65)): 100%
Obs % visual injury ([7]; SINAR, Compound A 10 g/ha (Table 66)): 88%
% visual injury, Obs ([7]; SINAR, Compound A 15 g/ha): 93%
Obs % visual injury ([7]; SINAR, Compound A 15 g/ha): 93%
% visual injury, Obs ([8]; 10 g/ha): 23%
% visual injury ([8]; Compound A 10 g/ha): 10%
% visual injury, Obs [8, 16]: 18%
VIOTR % visual injury Obs [8, 16]: 18%
% visual injury ([8]; Compound A 15 g/ha): 10%
% visual injury, Obs ([9]; 10 g/ha): 68%
% visual injury, Obs ([9]; BRSNW, Compound A 10 g/ha): 45%
Obs % visual injury ([9]; BRSNW, Compound A 10 g/ha): 45% and 40%
Obs % visual injury ([9]; BRSNW, Compound A 10 g/ha (Table 66)): 68%
Obs % visual injury ([9]; BRSNW, Compound A 10 g/ha (Table 67)): 60%
% visual injury, Obs ([9]; BRSNW, Compound A 15 g/ha): 73%
Obs % visual injury ([9]; BRSNW, Compound A 15 g/ha): 73%
Obs % visual injury ([9]; BRSNW, Compound A 15 g/ha (Table 67)): 75%
% visual injury ([9]; Compound A 10 g/ha): 75% and 43% and 68% and 45%
% visual injury Obs ([9]; Compound A 10 g/ha): 45% and 40%
% visual injury ([9]; Compound A 15 g/ha): 75% and 73%
% visual injury Obs ([9]; Compound A 15 g/ha): 73%
% visual injury (winter wheat (TRZAW); Compound A 10 g/ha): 0%
% visual injury (winter wheat (TRZAW); Compound A 15 g/ha): 0%
% visual injury (winter barley (HORVW); Compound A 10 g/ha): 0%
% visual injury (winter barley (HORVW); Compound A 15 g/ha): 0%
% visual injury, Obs [10]: 20%
RUMOB % visual injury Obs [10]: 20%
% visual injury [11]: 89%
% visual injury, Obs ([11]; safener mefenpyr-diethyl): 98%
HELAN % visual injury Obs ([11]; safener mefenpyr-diethyl): 98%
% visual injury [12]: 25%
% visual injury, Obs ([12]; safener mefenpyr-diethyl): 5%
IPOHE % visual injury Obs ([12]; safener mefenpyr-diethyl): 5%
% visual injury, Obs ([13]; 10 g/ha): 0%
% visual injury, Obs [13, 16]: 10%
DIGSA % visual injury Obs [13, 16]: 10%
% visual injury, Obs [14]: 95%
GLXMA % visual injury Obs [14]: 95%
% visual injury, Obs ([15]; 10 g/ha): 48%
% visual injury, Obs [15, 16]: 73%
ABUTH % visual injury Obs [15, 16]: 73%
